From US12617773B2, “Azetidin-3-ylmethanol derivatives as CCR6 receptor modulators” (Idorsia Pharmaceuticals Ltd, priority 2020, dated 2026)

Target: T1, human CCR6 (Homo sapiens, UniProt P51684)
T1 construct: expressed in transfected cells; host or cells: HEK-293
T1 sequence (P51684 1-374): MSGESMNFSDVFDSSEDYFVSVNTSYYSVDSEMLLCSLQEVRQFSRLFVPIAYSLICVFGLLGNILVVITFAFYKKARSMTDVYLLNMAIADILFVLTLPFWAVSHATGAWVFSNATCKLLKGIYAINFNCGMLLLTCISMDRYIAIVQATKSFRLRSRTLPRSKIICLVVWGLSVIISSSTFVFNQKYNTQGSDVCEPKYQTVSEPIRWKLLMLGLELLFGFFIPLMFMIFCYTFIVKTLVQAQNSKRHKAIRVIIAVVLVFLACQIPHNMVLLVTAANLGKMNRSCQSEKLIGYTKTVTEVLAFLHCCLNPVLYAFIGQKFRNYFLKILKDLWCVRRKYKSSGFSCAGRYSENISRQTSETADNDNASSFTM
Experiment: FLIPR assay (inhibition of CCL20-induced calcium signal)
Assay type: cell-based
Settings: HEK-293 cells expressing human CCR6; mean values where determined several times; read-out: FLIPR IC50
Summary of the method: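 IC50 values come from baseline-corrected peak calcium fluorescence after agonist. The agonist was CCL20 at 10 nM final, added to engineered human CCR6 HEK-293 cells following a 30-min, room-temperature, dark preincubation with serially diluted compound. Readings were taken in a fluorometric imaging plate reader.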

Structure (SMILES) | IC50
CC(C)NC(=O)OCc1cncc([C@@](O)(c2ccc(C(C)C)cc2)C2(C)CN(C)C2)c1 [Example 325, Isopropyl-carbamic acid 5-[(R)-(1,3-dimethyl-azetidin-3-yl)-hydroxy-(4-isopropyl-phenyl)-methyl]-pyridin-3-ylmethyl ester] | 595 nM
CC(C)c1ccc([C@](O)(c2cncc(CCOCc3ccccc3)c2)C2(C)CN(C)C2)cc1 [Example 326, (R)-[5-(2-Benzyloxy-ethyl)-pyridin-3-yl]-(1,3-dimethyl-azetidin-3-yl)-(4-isopropyl-phenyl)-methanol] | 83.3 nM
CC(C)c1ccc([C@](O)(c2cncc(C3CCC(C)(O)CC3)c2)C2(C)CN(C)C2)cc1 (stereo partly drawn) [Example 327, 4-{5-[(R)-(1,3-Dimethyl-azetidin-3-yl)-hydroxy-(4-isopropyl-phenyl)-methyl]-pyridin-3-yl}-1-methyl-cyclohexanol] | 168 nM
CC(C)c1ccc([C@](O)(c2cncc(C3CC3C(C)(C)O)c2)C2(C)CN(C)C2)cc1 (stereo partly drawn) [Example 328, 2-(2-{5-[(R)-(1,3-Dimethyl-azetidin-3-yl)-hydroxy-(4-isopropyl-phenyl)-methyl]-pyridin-3-yl}-cyclopropyl)-propan-2-ol] | 187 nM
CC(C)c1ccc(C(O)(c2cncc(N3CCCC3)n2)C2(C)CN(C)C2)cc1 (stereo not drawn) [Example 331, (1,3-Dimethyl-azetidin-3-yl)-(4-isopropyl-phenyl)-(6-pyrrolidin-1-yl-pyrazin-2-yl)-methanol] | 50.1 nM
[2H]C([2H])([2H])C(=O)N(C)Cc1nc(-c2cncc([C@@](O)(c3ccc(C(C)C)cc3)C3(C)CN(C)C3)c2)no1 [Example 334] | 216 nM
[2H]C([2H])([2H])C(=O)NCc1nc(-c2cncc([C@@](O)(c3ccc(C(C)C)cc3)C3(C)CN(C)C3)c2)no1 [Example 336] | 207 nM
CC(C)c1ccc([C@](O)(c2cncc(-c3noc(CC(C)(C)O)n3)c2)C2(C)CN(C(C)C)C2)cc1 [Example 337, 1-(3-{5-[(R)-Hydroxy-(1-isopropyl-3-methyl-azetidin-3-yl)-(4-isopropyl-phenyl)-methyl]-pyridin-3-yl}-[1,2,4]oxadiazol-5-yl)-2-methyl-propan-2-ol] | 95.1 nM

More lines, in order of falling IC50, values ahead:

IC50 | Structure (SMILES)
485 nM | CC(C)c1ccc([C@](O)(c2ccnc(-c3noc(C4CCOCC4)n3)c2)C2(C)CN(C)C2)cc1 [Example 329, (S)-(1,3-Dimethyl-azetidin-3-yl)-(4-isopropyl-phenyl)-{2-[5-(tetrahydro-pyran-4-yl)-[1,2,4]oxadiazol-3-yl]-pyridin-4-yl}-methanol]
337 nM | CC(C)c1ccc([C@](O)(c2cncc(-c3noc(CNC(=O)CO)n3)c2)C2(C)CN(C)C2)cc1 [Example 335]
290 nM | [2H]C([2H])([2H])C(=O)NC1(c2nc(-c3cncc([C@@](O)(c4ccc(C(C)C)cc4)C4(C)CN(C)C4)c3)no2)CC1 [Example 332]
143 nM | CC(C)c1ccc(C(O)(c2cnc(N3CCCC3)nc2)C2(C)CN(C)C2)cc1 (stereo not drawn) [Example 330, (1,3-Dimethyl-azetidin-3-yl)-(4-isopropyl-phenyl)-(2-pyrrolidin-1-yl-pyrimidin-5-yl)-methanol]
113 nM | [2H]C([2H])([2H])C(=O)N(C)C1(c2nc(-c3cncc([C@@](O)(c4ccc(C(C)C)cc4)C4(C)CN(C)C4)c3)no2)CC1 [Example 333]
100 nM | CC(C)c1ccc([C@](O)(c2cncc(-c3noc(C(C)(C)O)n3)c2)C2(C)CN(C(C)C)C2)cc1 [Example 339, 2-(3-{5-[(R)-Hydroxy-(1-isopropyl-3-methyl-azetidin-3-yl)-(4-isopropyl-phenyl)-methyl]-pyridin-3-yl}-[1,2,4]oxadiazol-5-yl)-propan-2-ol]
93.8 nM | CCN1CC(C)([C@](O)(c2ccc(C(C)C)cc2)c2cncc(-c3noc(CC(C)(C)O)n3)c2)C1 [Example 338, 1-(3-{5-[(R)-(1-Ethyl-3-methyl-azetidin-3-yl)-hydroxy-(4-isopropyl-phenyl)-methyl]-pyridin-3-yl}-[1,2,4]oxadiazol-5-yl)-2-methyl-propan-2-ol]
